Experimental data from paper PMC11309765, “Mechanism of the blood-brain barrier modulation by cadherin peptides” (Exploration of drug science, 2024).
“Also recorded” adds a separate entry of the source. Where a SMILES comes first, the peptide text is derived from it. Bridges are numbered along the chain shown (N, C = ends).

What was measured:
[1] = biological target: T1, EC1 domain of human E-cadherin (Homo sapiens, UniProt P12830); test: 1H-15N HSQC NMR titration of 15N-labeled EC1 (chemical shift perturbation, CSP); assay type: binding
T1 construct: Strep-tag I (WSHPQFEK) (C); factor Xa cleavage site (IEGR) linker (C); made in house; host or cells: E. coli BL21(DE3), plasmid pASK-IBA6
T1 sequence (P12830 155-292): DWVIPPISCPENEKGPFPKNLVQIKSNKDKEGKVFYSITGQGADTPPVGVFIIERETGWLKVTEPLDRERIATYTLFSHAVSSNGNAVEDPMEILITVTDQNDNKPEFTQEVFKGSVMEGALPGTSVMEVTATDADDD
Source text: Our previous method was used to express and purify the ^15N-labeled EC1 domain [22]. Briefly, the plasmid (pASK-IBA6, Genosys, Woodland, TX) contains DNA construct of 138 amino acid residues. The EC1 domain has 110 residues connected to 28 amino acids from the EC2 domain sequence at the C-terminus tail followed by a WSHPQFEK sequence of Streptag I that is linked by an IEGR sequence for a factor Xa cleavage. Then, the plasmid was transformed into competent E. coli BL21(DE3) cells (New England Biosciences, Ipswich, MA). The cells were incubated at 37°C overnight on a plate with lysogeny broth (LB) agar containing […] ampicillin. A single colony of E. coli cells was picked and incubated in 10 mL of LB media followed by the addition of 10 μL ampicillin at 100 mg/mL concentration. Then, the mixture was incubated in an orbital shaker at 250 rpm and 37°C. ^15N-labeled NH4Cl was added to 250 mL of M9 minimal media in 1 L Erlenmeyer flask to produce the ^15N-labeled EC1 domain. A 24 μL of anhydrotetracycline (2 mg/mL; Promega Inc., Madison, WI) was spiked into the cell culture when it reached OD550 of 0.5–0.6 to induce the EC1 protein expression. Then, the cell mixture was incubated at 30°C for 6–7 h followed by cell harvesting using centrifugation at 4,500 xg. The resulting cell pellets were stored at −80°C.
For isolation of purified ^15N-EC1, E. coli cell pellets were lysed using 20,000 psi French press (Thermo Electron Corporation) in 10 mL of binding buffer. This binding buffer consists of 150 mM NaCl, 1.0 mM EDTA, 0.02% NaN3, and 100 mM Tris-HCl at pH = 8.0. The mixture was centrifuged at 21,000 xg, 4°C, and 1 h to get rid of cellular debris. The EC1 domain was in the supernatant and the Amicon Ultra protein concentrator [10 kDa molecular weight (MW) cut-off, EMD Millipore, Billerica, MA] was used to concentrate the protein upon centrifugation at 4,500 rpm, 20 min, and 4°C. […] The purity of pooled EC1 fractions was evaluated by SDS-PAGE. Protein concentration was calculated using UV spectrometry at 280 nm (coefficient absorption = 19,480 M^–1 cm^–1). […]

[2] = tested on: blood-brain barrier (BBB); settings: cited from earlier work
Source text: In addition, Gd-DTPA delivery to the brain was enhanced when co-administered with ADTC5 in living mice upon detection with magnetic resonance imaging (MRI). […] Different cadherin peptides produced different durations of the BBB opening for different sizes of del ...

[3] = tested on: blood-brain barrier (BBB); settings: in-situ rat brain perfusion; cited from earlier work
[4] = tested on: Madin-Darby canine kidney (MDCK) cell monolayers; settings: Val6 mutation; cited from earlier work
Source text: Currently, the mechanism of binding as well as the EC1 binding site of ADT peptides have not been elucidated; thus, this study was aimed at using nuclear magnetic resonance (NMR) and molecular docking experiments to determine ADTC5 binding properties (Table 1) on EC1. […] Therefore, the Val6 residue was mutated to the Glu6 or Tyr6 re ...

BBB tight junctions = settings: cited from earlier work
Source text: As BBBMs, the in vivo activities of ADT and HAV peptides to modulate the BBB were transient and reversible. […] Different cadherin peptides produced different durations of the BBB opening for different sizes of del ...

Which “EC1 residues with largest/significant NH chemical shift perturbation” value ([1]; 1H-15N HSQC titration, pH 6.0) does the source give for `CC(=O)N[C@H]1CSSC[C@@H](C(N)=O)NC(=O)[C@H](C(C)C)NC(=O)[C@@H]2CCCN2C(=O)[C@@H]2CCCN2C(=O)[C@H]([C@@H](C)O)NC(=O)[C@H](CC(=O)O)NC1=O` [ADTC5] (Ac-CDTPPVC-NH2; disulfide 1-7) here?
The value was “One of the dramatic changes was seen for residue I4 with larger CSP compared to other residues; also recorded: In addition to the strong effect of the NH of I4 residue, significant shifts were also observed in the NHs of I38, I53, V98, D103, and F113 residues; also recorded: large CSP changes on D103, and F113 residues at the C-terminal tail; also recorded: large CSP changes were also observed at the I4, I7, and S8 residues at the N-terminus domain”.

What about the “relative binding affinity to EC1” value ([1]; comparison among ADTC5, ADTC7, ADTC9) of the same compound?
The value was “highest binding affinity to the EC1 domain of E-cadherin compared to ADTC7 and ADTC9; also recorded: binds better to the EC1 domain compared to ADTC7 and ADTC9”.

And the “CSP result in words” value ([1]; comparison of CSP profiles / conformational effect, 1H-15N HSQC)?
The value was “influences the conformation of the EC1 C-terminal tail; also recorded: All seven clusters have consistent high CSPs on active residues T97, V98, and D103; also recorded: binding of ADTC5 to EC1 may induce conformational change at the C-terminal tail; also recorded: binding of ADTC5 can cause conformational change at the N-terminal region or domain swapping region”.

And the “duration of paracellular porosity for Galbumin” value ([2]; 65 kDa Galbumin)?
The value was “less than 20 min”.

And the “delivery of mAb to brain” value ([2]; 150 kDa mAb)?
Its value is “had to be administered together with 150 kDa mAb for delivering mAb to the brain”.

What about the “Gd-DTPA delivery to the brain” value ([2]; co-administered, living mice, MRI) of the same compound?
Its value is “enhanced”.

What about the “brain deposition of peptides, Galbumin and mAb” value ([2]; i.v., co-administered, mice, mass spectrometry, NIRF, MRI) of the same compound?
The value was “significantly enhanced brain deposition of peptides, Gd-labeled albumin (Galbumin), and mAb”.

What about the “duration of in vivo paracellular opening for Gd-DTPA” value ([2]; small molecule Gd-DTPA) of the same compound?
The value was “less than 4 h”.

And the “delivery of various molecules to the brain” value [3]?
The value was “enhanced the delivery of various molecules to the brain”.

What about the “modulatory activity in MDCK cell monolayers” value [4] of the same compound?
Its value is “mutation of this residue reduced inhibitory activity in preventing the resealing of the paracellular pathway”.

What about the “anatomical structure of BBB tight junctions” value (BBB tight junctions) of the same compound?
The value was “did not change”.
